Measurements reported in article PMC7400437, “Synthesis and Evaluation of the Antibacterial Activities of 13-Substituted Berberine Derivatives” (Antibiotics, 2020).
In brackets after ≈: the same amount, converted by molar mass.

Tests used:
[1] = tested on: V. alginolyticus; experiment: Macromolecule synthesis inhibition assay by fluorescent microscopy (morphological changes); settings: 4 × MIC, 2 h, 37 °C; for Observed Morphology: DNA, V. alginolyticus: DAPI; for Observed Morphology: cell membrane, V. alginolyticus: FM4-64FX
[2] = tested on: B. subtilis; experiment: as above; settings: 4 × MIC, 2 h, 37 °C; for Observed Morphology: DNA, B. subtilis: DAPI
[3] = tested on: C. albicans; experiment: MIC, antifungal activity assay; format: cell-based, Candida albicans (DSM 10697); settings: Candida albicans; Table 1 first screening; 35 °C, 24 h; read-out: Minimal Inhibitory Concentration (MIC) C. albicans
[4] = tested on: B. subtilis; experiment: MIC, antimicrobial activity assay; format: cell-based, Bacillus subtilis (ATCC 6633); settings: Bacillus subtilis; Table 1 first screening; read-out: Minimal Inhibitory Concentration (MIC) B. subtilis
[5] = tested on: P. aeruginosa; experiment: MIC, antimicrobial activity assay; format: cell-based, Pseudomonas aeruginosa (ATCC 9027); settings: Pseudomonas aeruginosa; Table 1 first screening; read-out: Minimal Inhibitory Concentration (MIC) P. aeruginosa
[6] = tested on: M. smegmatis; experiment: microbe, parasite or virus in culture; format: cell-based, Mycobacterium smegmatis (mc2155, ATCC 700084); settings: Mycolicibacterium smegmatis, 72 h, read-out: Minimal Inhibitory Concentration (MIC) M. smegmatis
[7] = tested on: S. aureus; experiment: MIC, antimicrobial activity assay; format: cell-based, Staphylococcus aureus (ATCC 6538P); settings: Staphylococcus aureus; Table 1 first screening; read-out: Minimal Inhibitory Concentration (MIC) S. aureus
[8] = tested on: E. coli; experiment: MIC, antimicrobial activity assay; format: cell-based, Escherichia coli (ATCC 8739); settings: Escherichia coli; Table 1 first screening; read-out: Minimal Inhibitory Concentration (MIC) E. coli
[9] = tested on: HepG2 (human liver cells); experiment: Cytotoxic assay on human cells (resazurin); format: cell-based; settings: HepG2, 48 h, read-out: Inhibitory Concentration 50 (IC50) on cell viability, HEPG2
Description: (§1) The toxicity of berberine and berberine’s derivatives on human cells was evaluated using resazurin assay as previously described. Human cells used were BEAS (ATCC CRL-9609), Caco2 (ATCC HTB-37) and HepG2 (ATCC HB-8065) corresponding respectively to human airway epithelial cells, intestinal epithelial cells and liver cells. Cells were cultured in Dulbecco’s modified essential medium (DMEM) supplemented with 10% fetal bovine serum (FBS), 1% L-glutamine and 1% antibiotics (Thermo Fisher Scientific, Illkirch-Graffenstaden, France). Cells were routinely grown on 25 cm^2 flasks and maintained in a 5% CO2 incubator at 37 °C. For toxicity assay, cells were detached using trypsin–EDTA solution (Thermo Fisher Scientific), counted using Mallasez counting chamber and seeded into 96-well cell culture plates (Greiner bio-One, Dominique Dutscher, Brumath, France) at approximately 10,000 cells per well. The cells were left to grow for 48–72 h at 37 °C in a 5% CO2 incubator until they reached confluence. Media from wells was then aspirated and cells were treated with 100 µL of culture media containing increasing concentrations of berberine or berberine’s derivatives obtained by serial dilution (from 0 to 50 µM, 1:2 dilution), DMSO (0.5% DMSO final concentration) was used as negative control. After 48 h incubation at 37 °C in a 5% CO2 incubator, cell viability was evaluated using resazurin based in vitro toxicity assay kit (Sigma-Aldrich) following manufacturer’s instructions. Briefly, cell wells were emptied, and cells were treated with 100 µL of resazurin diluted 1:10 in sterile PBS containing calcium and magnesium (PBS^++, pH 7.4). After 4 h incubation at 37 °C, fluorescence intensity (excitation wavelength of 530 nm/emission wavelength of 590 nm) was measured using Synergy Mx microplate reader (Biotek). The fluorescence values were normalized by the controls (DMSO treated cells) and expressed as percent viability. The IC50 values of berberine and berberine’s derivatives on cell viability (i.e., the concentration of derivative causing a reduction of 50% of the cell viability) were calculated using GraphPad® Prism 7 software (San Diego, CA, USA). t-Test and two ways ANOVA analyses were used to address the significant differences between mean values with significance set at p < 0.05.

[10] = tested on: Caco2 (human intestinal epithelial cells); experiment: Cytotoxic assay on human cells (resazurin); format: cell-based; settings: Homo sapiens, Caco-2, 48 h, read-out: Inhibitory Concentration 50 (IC50) on cell viability, Caco2
Description: as §1

[11] = tested on: BEAS (human airway epithelial cells); experiment: Cytotoxic assay on human cells (resazurin); format: cell-based; settings: Epithelial cell, 48 h, means +/−SD, read-out: Inhibitory Concentration 50 (IC50) on cell viability, BEAS
Description: as §1

Row | Structure (SMILES) | Observed Morphology: cell elongation, V. alginolyticus [1] | Observed Morphology: cells connected, V. alginolyticus [1] | Observed Morphology: DNA, V. alginolyticus [1] | Observed Morphology: cell membrane, V. alginolyticus [1] | Observed Morphology: cell elongation/enlargement, B. subtilis [2] | Observed Morphology: cells connected, B. subtilis [2] | Observed Morphology: DNA, B. subtilis [2] | MIC [3] [µM] | MIC [4] [µM] | MIC [5] [µM] | MIC [6] [µM] | MIC [7] [µM] | MIC [8] [µM] | IC50 [9] [µM] | IC50 [10] [µM] | IC50 [11] [µM] | Observed Morphology: cell membrane, B. subtilis ([2]; FM4-64FX)
1 | CC1(C)S[C@@H]2[C@H](NC(=O)[C@H](N)c3ccc(O)cc3)C(=O)N2[C@H]1C(=O)O [Amoxicillin] | 1–3 times compared to control | 1–2 cells connected | Thick condensed and decondensed DNA spanning the cell | Cell membrane thickening | 1.5 times compared to control | 2–4 cells connected | 2 condensed DNA in each cell | – | – | – | – | – | – | – | – | – | –
2 | C[C@@H]1[C@H](O)[C@@H](C)/C=C/C=C/C=C/C=C/C=C/C=C/C=C/[C@H](O[C@@H]2O[C@H](C)[C@@H](O)[C@H](N)[C@@H]2O)C[C@@H]2O[C@](O)(C[C@@H](O)C[C@@H](O)[C@H](O)CC[C@@H](O)C[C@@H](O)CC(=O)O[C@H]1C)C[C@H](O)[C@H]2C(=O)O [Amphotericin B, reference compound] | – | – | – | – | – | – | – | 1.1 (≈ 1.02 µg/mL) | – | – | – | – | – | – | – | – | –
3 | COc1ccc2c(c1OC)CN1CCc3cc4c(cc3C1=C2)OCO4 [Compound 1, Dihydroberberine] | – | – | – | – | – | – | – | 100 (≈ 33.7 µg/mL) | > 100 | > 100 | > 100 | 100 (≈ 33.7 µg/mL) | > 100 | – | – | – | –
4 | COc1ccc2c(O)c3[n+](cc2c1OC)CCc1cc2c(cc1-3)OCO2 [Compound 2, 13-hydroxyberberine] | – | – | – | – | – | – | – | > 100 | 50 | > 100 | 25 | 12.5 to 25 | > 100 | > 50 | 34.2 ± 3.8 | > 50 | –
5 | COc1ccc2c(c1OC)C(CC(C)=O)N1CCc3cc4c(cc3C1=C2)OCO4 (centres unmarked) [Compound 3, 8-acetonyl dihydroberberine] | – | – | – | – | – | – | – | 100 (≈ 39.3 µg/mL) | > 100 | > 100 | 100 (≈ 39.3 µg/mL) | 100 (≈ 39.3 µg/mL) | > 100 | – | – | – | –
6 | COc1ccc2c(CC(=O)O)c3[n+](cc2c1OC)CCc1cc2c(cc1-3)OCO2 [Compound 5, 13-(Acetic Acid) Berberine] | – | – | – | – | – | – | – | > 100 | 100 | > 100 | 50 | 100 | > 100 | – | – | – | –
7 | COc1ccc2c(Cc3ccc(C#N)cc3)c3[n+](cc2c1OC)CCc1cc2c(cc1-3)OCO2 [Compound 7, 13-(4-Cyanobenzyl)Berberine] | – | – | – | – | – | – | – | 100 | > 100 | > 100 | 100 | 100 | > 100 | – | – | – | –
8 | C=Cc1ccc(Cc2c3[n+](cc4c(OC)c(OC)ccc24)CCc2cc4c(cc2-3)OCO4)cc1 [Compound 9, 13-(4-Ethenylbenzyl)Berberine] | – | – | – | – | – | – | – | 50 | 12.5 | > 100 | 6.25 | 3.12 | > 100 | > 50 | 24.8 ± 3.6 | 12.8 ± 1.6 | –
9 | COc1ccc2c(Cc3ccc(S(N)(=O)=O)cc3)c3[n+](cc2c1OC)CCc1cc2c(cc1-3)OCO2 [Compound 10, 13-(4-Sulfamoylbenzyl)Berberine] | – | – | – | – | – | – | – | > 100 | > 100 | > 100 | > 100 | > 100 | > 100 | – | – | – | –
10 | COc1ccc2c(Cc3ccc(CN)cc3)c3[n+](cc2c1OC)CCc1cc2c(cc1-3)OCO2 [Compound 11, 13-(4-Aminomethylbenzyl)Berberine] | – | – | – | – | – | – | – | 100 | 25 | > 100 | 50 | 25 | > 100 | > 50 | > 50 | > 50 | –
11 | COc1ccc2c(Cc3ccc(C=O)cc3)c3[n+](cc2c1OC)CCc1cc2c(cc1-3)OCO2 [Compound 12, 13-(4-Formylbenzyl)Berberine] | – | – | – | – | – | – | – | > 100 | > 100 | > 100 | 100 | 100 | > 100 | – | – | – | –
12 | COc1ccc2c(Cc3ccc4c(c3)OCO4)c3[n+](cc2c1OC)CCc1cc2c(cc1-3)OCO2 [Compound 13, 13-[(2H-1,3-Benzodioxol-5-yl)methyl]Berberine] | – | – | – | – | – | – | – | 50 | 25 | > 100 | 12.5 | 6.25 to 12.5 | > 100 | > 50 | 31.4 ± 3.8 | 16.9 ± 1.5 | –
13 | COc1ccc2c(Cc3ccc(C=NO)cc3)c3[n+](cc2c1OC)CCc1cc2c(cc1-3)OCO2 [Compound 21, N-({4-[(Berberin-13-yl)methyl]phenyl}methylidene)hydroxylamine] | – | – | – | – | – | – | – | > 100 | 100 | > 100 | 50 | 50 | > 100 | – | – | – | –
14 | COc1ccc2c(Cc3ccc(/C=C/C(=O)O)cc3)c3[n+](cc2c1OC)CCc1cc2c(cc1-3)OCO2 [Compound 22, (2E)-3-{4-[(Berberin-13-yl)methyl]phenyl}prop-2-enoic Acid] | – | – | – | – | – | – | – | > 100 | > 100 | > 100 | > 100 | > 100 | > 100 | – | – | – | –
15 | CO/N=C1\CN(c2nc3c(cc2F)c(=O)c(C(=O)O)cn3C2CC2)CC1CN (centres unmarked) [Gemifloxacin, reference compound] | 3–9 times compared to control | 1–2 cells connected | Thick condensed DNA spanning the cell | – | – | Single cells | Decondensed DNA | – | 0.02 (≈ 0.00779 µg/mL) | 0.25 (≈ 0.0973 µg/mL) | 2 (≈ 0.779 µg/mL) | 0.06 (≈ 0.0234 µg/mL) | 0.06 (≈ 0.0234 µg/mL) | – | – | – | –
16 | CO[C@H]1/C=C/O[C@@]2(C)Oc3c(C)c(O)c4c(O)c(c(/C=N/N5CCN(C)CC5)c(O)c4c3C2=O)NC(=O)/C(C)=C\C=C\[C@H](C)[C@H](O)[C@@H](C)[C@@H](O)[C@@H](C)[C@H](OC(C)=O)[C@@H]1C [Rifampicin] | 2.5 times compared to control | 1–2 cells connected | Condensed DNA spanning the cell | Cell membrane pigmentation | 2.5 times compared to control | 2–3 cells connected | DNA condensed in one thick filament crossing the cells some with dot like shape | – | – | – | – | – | – | – | – | – | Cell membrane thickening
17 | CN(C)[C@@H]1C(O)=C(C(N)=O)C(=O)[C@@]2(O)C(O)=C3C(=O)c4c(O)cccc4[C@@](C)(O)[C@H]3C[C@@H]12 [Tetracycline] | 1.5–3 times compared to control | 1–3 cells connected | DNA condensed in one thin filament spiring the cells | – | 1.5–3 times compared to control | 1–3 cells connected | DNA condensed in one thin filament across the cells | – | – | – | – | – | – | – | – | – | –
